Experimental data from ChEMBL document CHEMBL4715821, “Discovery of 4-ethoxy-7H-pyrrolo[2,3-d]pyrimidin-2-amines as potent, selective and orally bioavailable LRRK2 inhibitors” (Bioorg Med Chem Lett, 2018).
Converted amounts (≈) assume the structure as drawn.

Experiments:
[1] = target: T1, Leucine-rich repeat serine/threonine-protein kinase 2 (Homo sapiens, UniProt Q5S007); experiment: Inhibition of recombinant His6-Tev-LRRK2 (1326 to 2527 residues) (unknown origin) using LRRKtide as substrate preincubated for 30 mins followed by substrate addition and measured after 2 hrs in presence of ATP by TR-FRET assay
T1 sequence (Q5S007 whole entry, the tested form may be a part): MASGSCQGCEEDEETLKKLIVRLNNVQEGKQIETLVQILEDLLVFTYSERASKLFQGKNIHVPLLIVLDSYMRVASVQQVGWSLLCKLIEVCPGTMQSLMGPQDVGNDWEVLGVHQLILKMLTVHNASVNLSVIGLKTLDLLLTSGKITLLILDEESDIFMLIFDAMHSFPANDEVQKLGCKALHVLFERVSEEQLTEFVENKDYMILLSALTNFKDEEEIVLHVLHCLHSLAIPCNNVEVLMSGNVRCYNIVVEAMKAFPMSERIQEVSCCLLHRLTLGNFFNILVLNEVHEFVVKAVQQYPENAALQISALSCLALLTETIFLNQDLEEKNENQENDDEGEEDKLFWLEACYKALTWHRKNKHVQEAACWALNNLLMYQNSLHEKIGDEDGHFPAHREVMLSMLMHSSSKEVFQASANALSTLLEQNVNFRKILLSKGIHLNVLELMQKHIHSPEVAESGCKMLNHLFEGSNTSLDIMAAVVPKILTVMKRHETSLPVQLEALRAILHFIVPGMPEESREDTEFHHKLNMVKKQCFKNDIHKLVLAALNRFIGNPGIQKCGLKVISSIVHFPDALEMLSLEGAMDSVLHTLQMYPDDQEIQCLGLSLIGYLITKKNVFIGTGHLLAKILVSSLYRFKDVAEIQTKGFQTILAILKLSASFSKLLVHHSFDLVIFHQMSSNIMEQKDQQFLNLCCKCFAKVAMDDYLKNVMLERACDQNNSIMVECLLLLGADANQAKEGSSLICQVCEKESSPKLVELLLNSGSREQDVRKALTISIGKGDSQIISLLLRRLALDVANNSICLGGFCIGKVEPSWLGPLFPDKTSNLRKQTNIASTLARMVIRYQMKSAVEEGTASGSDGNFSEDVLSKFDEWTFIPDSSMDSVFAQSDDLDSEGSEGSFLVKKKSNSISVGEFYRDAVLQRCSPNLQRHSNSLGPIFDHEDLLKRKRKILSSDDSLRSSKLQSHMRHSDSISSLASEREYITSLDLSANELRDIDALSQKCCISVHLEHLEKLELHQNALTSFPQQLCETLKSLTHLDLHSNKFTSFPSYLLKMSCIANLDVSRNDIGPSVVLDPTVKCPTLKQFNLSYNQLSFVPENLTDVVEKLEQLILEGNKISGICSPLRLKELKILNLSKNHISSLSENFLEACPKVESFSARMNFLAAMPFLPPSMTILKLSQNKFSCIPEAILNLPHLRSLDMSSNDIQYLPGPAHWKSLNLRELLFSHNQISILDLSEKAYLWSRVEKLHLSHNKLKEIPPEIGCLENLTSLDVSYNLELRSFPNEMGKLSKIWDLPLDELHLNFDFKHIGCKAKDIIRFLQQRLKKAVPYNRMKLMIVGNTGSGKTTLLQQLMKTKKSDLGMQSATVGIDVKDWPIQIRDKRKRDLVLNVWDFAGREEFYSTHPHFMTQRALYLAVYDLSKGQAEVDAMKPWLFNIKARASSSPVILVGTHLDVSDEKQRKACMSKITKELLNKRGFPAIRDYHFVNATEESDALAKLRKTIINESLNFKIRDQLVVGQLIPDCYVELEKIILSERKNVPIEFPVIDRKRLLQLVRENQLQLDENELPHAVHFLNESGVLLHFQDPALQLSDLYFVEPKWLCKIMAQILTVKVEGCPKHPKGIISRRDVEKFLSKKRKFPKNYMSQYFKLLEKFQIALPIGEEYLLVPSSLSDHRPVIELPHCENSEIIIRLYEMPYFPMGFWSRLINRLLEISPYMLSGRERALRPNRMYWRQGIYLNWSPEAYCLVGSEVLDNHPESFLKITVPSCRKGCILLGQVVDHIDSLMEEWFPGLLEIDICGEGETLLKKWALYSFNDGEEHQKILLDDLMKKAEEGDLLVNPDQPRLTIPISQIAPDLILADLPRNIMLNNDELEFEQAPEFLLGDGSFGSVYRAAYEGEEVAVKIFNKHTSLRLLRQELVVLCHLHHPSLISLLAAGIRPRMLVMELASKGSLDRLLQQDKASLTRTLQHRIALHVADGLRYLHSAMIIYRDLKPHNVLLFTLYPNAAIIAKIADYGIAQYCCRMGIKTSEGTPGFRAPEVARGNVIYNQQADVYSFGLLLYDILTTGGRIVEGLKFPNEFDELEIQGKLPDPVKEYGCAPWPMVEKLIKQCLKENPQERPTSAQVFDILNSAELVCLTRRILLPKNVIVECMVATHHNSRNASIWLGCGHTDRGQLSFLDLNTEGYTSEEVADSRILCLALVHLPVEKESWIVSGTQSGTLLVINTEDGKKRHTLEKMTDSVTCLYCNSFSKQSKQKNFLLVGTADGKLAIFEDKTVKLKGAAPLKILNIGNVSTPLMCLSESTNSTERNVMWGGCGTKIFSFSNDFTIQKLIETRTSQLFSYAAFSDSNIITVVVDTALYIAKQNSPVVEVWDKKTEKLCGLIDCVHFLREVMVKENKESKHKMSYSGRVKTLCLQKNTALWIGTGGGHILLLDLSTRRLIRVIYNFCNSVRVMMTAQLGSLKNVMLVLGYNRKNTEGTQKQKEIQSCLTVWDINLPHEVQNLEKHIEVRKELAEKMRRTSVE

[2] = target: T1, Leucine-rich repeat serine/threonine-protein kinase 2; experiment: Inhibition of recombinant full-length LRRK2 (unknown origin) expressed in SH-SY5Y cells assessed as reduction in Ser935 phosphorylation after 60 mins by Alpha Screen assay; type: cell-based
[3] = Unbound fraction in Han-Wistar rat brain at 2 mg/kg, po; type: ADME, organism-based
[4] = Metabolic stability in human liver microsomes assessed as intrinsic clearance; type: ADME, Microsome
[5] = Lipophilicity, logD of compound at pH 7.4; conditions: buffer
[6] = Dose normalized AUC (0 to t) in Han-Wistar rat blood at 2 mg/kg, po measured up to 7 hrs by UPLC-MS/MS analysis; type: ADME, organism-based; conditions: in vivo
[7] = Dose normalized AUC (0 to t) in Han-Wistar rat brain at 2 mg/kg, po measured up to 7 hrs by UPLC-MS/MS analysis; type: ADME, organism-based; conditions: in vivo
[8] = Solubility of the compound in FaSSIF measured after 4 hrs; type: physicochemical
[9] = Ratio of total drug concentration in brain to blood in Han-Wistar rat at 2 mg/kg, po; type: ADME, organism-based
[10] = target: Mitogen-activated protein kinase kinase kinase 9 (Homo sapiens) (UniProt P80192); experiment: Inhibition of MLK1 (unknown origin) at 1 uM by radioactivity-based enzymatic assay relative to control
Sequence of Mitogen-activated protein kinase kinase kinase 9 (Homo sapiens) (P80192 whole entry, looked up): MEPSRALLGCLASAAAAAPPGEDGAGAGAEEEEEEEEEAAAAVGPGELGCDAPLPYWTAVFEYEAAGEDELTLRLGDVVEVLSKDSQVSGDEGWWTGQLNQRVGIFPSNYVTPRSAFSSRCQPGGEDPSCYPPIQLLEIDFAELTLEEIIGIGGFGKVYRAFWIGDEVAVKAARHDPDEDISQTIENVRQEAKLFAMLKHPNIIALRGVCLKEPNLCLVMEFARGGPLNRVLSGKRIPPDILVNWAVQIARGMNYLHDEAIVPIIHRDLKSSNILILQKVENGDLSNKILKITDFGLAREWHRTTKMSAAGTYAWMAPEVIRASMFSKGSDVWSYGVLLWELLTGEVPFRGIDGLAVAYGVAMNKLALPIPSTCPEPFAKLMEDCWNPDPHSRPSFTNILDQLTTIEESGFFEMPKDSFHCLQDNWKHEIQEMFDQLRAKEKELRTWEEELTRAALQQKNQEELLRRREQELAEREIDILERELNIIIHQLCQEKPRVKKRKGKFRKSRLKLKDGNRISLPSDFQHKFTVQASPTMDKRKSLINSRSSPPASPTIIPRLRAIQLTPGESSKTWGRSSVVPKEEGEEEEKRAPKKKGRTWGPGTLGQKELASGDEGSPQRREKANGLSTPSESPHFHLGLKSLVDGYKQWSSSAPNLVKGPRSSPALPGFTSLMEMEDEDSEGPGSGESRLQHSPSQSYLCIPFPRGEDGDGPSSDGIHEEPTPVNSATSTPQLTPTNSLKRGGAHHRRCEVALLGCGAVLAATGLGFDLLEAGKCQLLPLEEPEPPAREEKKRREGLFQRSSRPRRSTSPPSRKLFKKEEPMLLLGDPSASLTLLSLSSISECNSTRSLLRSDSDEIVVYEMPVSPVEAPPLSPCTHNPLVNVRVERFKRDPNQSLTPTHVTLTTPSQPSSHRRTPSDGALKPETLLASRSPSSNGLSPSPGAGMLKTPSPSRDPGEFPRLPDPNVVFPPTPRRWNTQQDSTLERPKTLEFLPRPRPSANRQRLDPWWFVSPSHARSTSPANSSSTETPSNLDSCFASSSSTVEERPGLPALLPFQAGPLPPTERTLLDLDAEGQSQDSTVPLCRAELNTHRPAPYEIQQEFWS

[11] = target: T2, Interleukin-1 receptor-associated kinase 4 (Homo sapiens) (UniProt Q9NWZ3); experiment: Inhibition of IRAK4 (unknown origin) at 1 uM by radioactivity-based enzymatic assay relative to control
T2 sequence (whole entry): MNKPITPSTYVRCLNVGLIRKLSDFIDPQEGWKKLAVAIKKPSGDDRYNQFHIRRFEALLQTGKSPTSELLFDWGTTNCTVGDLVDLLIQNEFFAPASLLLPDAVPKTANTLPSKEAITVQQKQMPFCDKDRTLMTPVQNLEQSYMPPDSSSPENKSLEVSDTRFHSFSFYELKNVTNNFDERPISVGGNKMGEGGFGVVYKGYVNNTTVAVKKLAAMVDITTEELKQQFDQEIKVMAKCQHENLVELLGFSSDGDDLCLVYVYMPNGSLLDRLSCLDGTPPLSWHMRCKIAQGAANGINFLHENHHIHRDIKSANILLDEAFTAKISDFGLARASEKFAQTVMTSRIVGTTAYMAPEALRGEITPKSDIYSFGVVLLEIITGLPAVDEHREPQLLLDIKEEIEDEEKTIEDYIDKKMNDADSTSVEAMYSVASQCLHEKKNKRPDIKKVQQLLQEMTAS

[12] = target: Tyrosine-protein kinase SYK (Homo sapiens) (UniProt P43405); experiment: Inhibition of SYK (unknown origin) at 1 uM by radioactivity-based enzymatic assay relative to control
[13] = Artificial membrane permeability by PAMPA method; type: ADME; conditions: read-out: permeability
[14] = target: T3, Mitogen-activated protein kinase kinase kinase kinase 3 (Homo sapiens) (UniProt Q8IVH8); experiment: Inhibition of MAP4K3 (unknown origin) at 1 uM by radioactivity-based enzymatic assay relative to control
T3 sequence (whole entry): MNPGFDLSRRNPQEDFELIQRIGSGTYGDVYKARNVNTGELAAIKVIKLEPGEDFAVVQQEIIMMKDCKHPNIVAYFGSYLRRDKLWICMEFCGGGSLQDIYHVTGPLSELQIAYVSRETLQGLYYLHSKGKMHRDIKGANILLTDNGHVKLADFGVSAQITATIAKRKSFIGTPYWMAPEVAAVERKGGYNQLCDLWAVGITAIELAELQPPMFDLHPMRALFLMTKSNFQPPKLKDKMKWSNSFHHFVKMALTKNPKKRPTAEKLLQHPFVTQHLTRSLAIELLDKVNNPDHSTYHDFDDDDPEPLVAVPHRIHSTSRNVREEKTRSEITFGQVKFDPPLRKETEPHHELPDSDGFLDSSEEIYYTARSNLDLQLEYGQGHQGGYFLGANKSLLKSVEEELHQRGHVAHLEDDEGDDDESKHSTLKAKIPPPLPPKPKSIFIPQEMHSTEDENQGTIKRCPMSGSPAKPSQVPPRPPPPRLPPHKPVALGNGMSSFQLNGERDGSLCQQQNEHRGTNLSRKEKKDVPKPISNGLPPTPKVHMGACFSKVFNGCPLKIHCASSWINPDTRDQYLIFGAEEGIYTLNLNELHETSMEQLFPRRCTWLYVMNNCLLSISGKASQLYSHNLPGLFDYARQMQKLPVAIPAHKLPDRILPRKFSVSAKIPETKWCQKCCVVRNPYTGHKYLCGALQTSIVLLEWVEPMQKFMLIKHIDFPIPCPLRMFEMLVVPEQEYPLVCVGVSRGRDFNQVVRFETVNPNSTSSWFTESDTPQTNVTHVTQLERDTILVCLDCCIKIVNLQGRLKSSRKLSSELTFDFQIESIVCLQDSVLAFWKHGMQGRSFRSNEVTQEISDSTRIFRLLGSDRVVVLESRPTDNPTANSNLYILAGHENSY

[15] = target: Tyrosine-protein kinase JAK2 (Homo sapiens) (UniProt O60674); experiment: Inhibition of JAK2 (unknown origin) at 1 uM by radioactivity-based enzymatic assay relative to control
Sequence of Tyrosine-protein kinase JAK2 (Homo sapiens) (O60674 whole entry): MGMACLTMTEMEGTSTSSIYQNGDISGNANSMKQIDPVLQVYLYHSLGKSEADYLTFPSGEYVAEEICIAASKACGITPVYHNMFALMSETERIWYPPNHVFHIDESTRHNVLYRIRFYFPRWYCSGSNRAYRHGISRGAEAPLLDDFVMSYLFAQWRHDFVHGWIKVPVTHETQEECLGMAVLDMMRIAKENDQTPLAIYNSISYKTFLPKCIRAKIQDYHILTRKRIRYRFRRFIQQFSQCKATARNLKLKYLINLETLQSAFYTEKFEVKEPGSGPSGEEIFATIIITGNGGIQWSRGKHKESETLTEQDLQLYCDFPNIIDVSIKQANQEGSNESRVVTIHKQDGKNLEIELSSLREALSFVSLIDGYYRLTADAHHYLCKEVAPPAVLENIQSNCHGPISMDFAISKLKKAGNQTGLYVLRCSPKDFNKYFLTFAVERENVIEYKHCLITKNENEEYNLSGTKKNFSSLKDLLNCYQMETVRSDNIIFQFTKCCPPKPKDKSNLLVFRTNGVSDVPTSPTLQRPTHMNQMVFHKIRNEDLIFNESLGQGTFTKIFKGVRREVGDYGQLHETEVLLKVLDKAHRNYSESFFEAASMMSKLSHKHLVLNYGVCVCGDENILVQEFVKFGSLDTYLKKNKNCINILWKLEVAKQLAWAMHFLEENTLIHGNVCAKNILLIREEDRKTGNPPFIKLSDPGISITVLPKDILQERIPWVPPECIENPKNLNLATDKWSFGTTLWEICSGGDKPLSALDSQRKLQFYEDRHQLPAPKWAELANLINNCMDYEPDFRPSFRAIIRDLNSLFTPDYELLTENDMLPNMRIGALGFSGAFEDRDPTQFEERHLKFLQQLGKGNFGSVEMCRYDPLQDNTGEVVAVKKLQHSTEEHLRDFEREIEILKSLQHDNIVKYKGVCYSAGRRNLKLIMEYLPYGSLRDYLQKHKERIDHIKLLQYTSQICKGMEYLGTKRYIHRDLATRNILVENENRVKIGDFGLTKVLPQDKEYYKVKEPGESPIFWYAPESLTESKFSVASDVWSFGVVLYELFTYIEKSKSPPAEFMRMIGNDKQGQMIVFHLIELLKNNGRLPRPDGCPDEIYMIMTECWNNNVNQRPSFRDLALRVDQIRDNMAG

[16] = Permeability ratio across apical side to basolateral side in MDCK2 cells transfected with Bacmam virus containing human BCRP at 3 uM after 90 mins in presence or absence of GF120918 by transwell assay; type: ADME, cell-based, Canis lupus familiaris; conditions: dog, mdck-ii, 1.5 h

Compound | IC50 [1] | IC50 [2] | CLH [4] | logD [5] | solubility at 4 h [8] | other results
CCOc1cc(C(=O)N2CCN(C)CC2)ccc1Nc1nc(OCC)c2cc[nH]c2n1 | 10 nM | 126 nM | – | – | – | –
CCOc1nc(Nc2ccc(C(=O)N3CCC(F)CC3)cc2OC)nc2[nH]ccc12 | 6.31 nM | 316 nM | 1.1 mL/min/g | – | 39.7 µg/mL (≈ 96 µM) | –
CCOc1nc(Nc2ccc(C(=O)N3CCOCC3)cc2OC(C)C)nc2[nH]ccc12 | 12.6 nM | 631 nM | – | – | – | –
CCOc1nc(Nc2ccc(C(=O)N3CCN(C)CC3)cc2OC(F)F)nc2[nH]ccc12 | < 0.158 nM | 158 nM | – | – | – | –
CCOc1nc(Nc2ccc(C(=O)N3CCN(C)CC3)cc2)nc2[nH]ccc12 | 12.6 nM | 79.4 nM | – | – | – | –
CCOc1nc(Nc2ccc(C(=O)NCC(C)(C)O)cc2OC)nc2[nH]ccc12 | 12.6 nM | 126 nM | 0.8 mL/min/g | 4.1 | 25.5 µg/mL (≈ 63.8 µM) | Ratio [16]: 3.8
CCOc1nc(Nc2ccc(C(=O)N3CCN(C)CC3)cc2N(C)C)nc2[nH]ccc12 | 200 nM | 3160 nM | – | – | – | –
CCOc1nc(Nc2ccc(C(=O)N3CCN(C)CC3)cc2Cl)nc2[nH]ccc12 | 12.6 nM | 251 nM | – | – | – | –
CCOc1nc(Nc2ccc(C(=O)N3CCOC[C@@H]3C)cc2OC)nc2[nH]ccc12 | 7.94 nM | 100 nM | 1.4 mL/min/g | 5 | 154 µg/mL (≈ 374 µM) | Ratio [16]: 1.8

Now from value to compound, other results behind:

IC50 [1] | IC50 [2] | CLH [4] | logD [5] | solubility at 4 h [8] | Compound | other results
– | – | 2.5 mL/min/g | 4.9 | 300 µg/mL (≈ 687 µM) | CCOc1nc(Nc2ccc(C(=O)N3CCN4CCC[C@@H]4C3)cc2OC)nc2[nH]ccc12 | fraction unbound [3]: < 0.005; AUCt/dose [6]: 487 ng·h/g/mg/kg; AUCt/dose [7]: 246 ng·h/g/mg/kg; Kp [9]: 0.51
– | – | 3.2 mL/min/g | 4.9 | 309 µg/mL (≈ 709 µM) | CCOc1nc(Nc2ccc(C(=O)N3CCN4CCC[C@H]4C3)cc2OC)nc2[nH]ccc12 | –
7.94 nM | 63.1 nM | – | 3.9 | 1.7 µg/mL (≈ 4.63 µM) | CCOc1nc(Nc2ccc(C(=O)N3CCOCC3)cc2)nc2[nH]ccc12 | inhibition [10]: > 50%; inhibition [11]: > 50%; inhibition [12]: > 50%; Papp [13]: 51 ×10⁻⁶ cm/s; inhibition [14]: > 50%; inhibition [15]: > 50%
15.8 nM | 79.4 nM | 0.8 mL/min/g | 5.1 | 78.8 µg/mL (≈ 192 µM) | CCOc1nc(Nc2ccc(C(=O)N3CCOC[C@H]3C)cc2OC)nc2[nH]ccc12 | Ratio [16]: 2.2
12.6 nM | 50.1 nM | – | 2.8 | 8.6 µg/mL (≈ 24.6 µM) | NC(=O)c1ccc(Nc2nc(NCC(F)(F)F)c3cc[nH]c3n2)cc1 | inhibition [10]: > 50%; inhibition [11]: > 50%; inhibition [12]: > 50%; Papp [13]: 3.6 ×10⁻⁶ cm/s; inhibition [14]: > 50%; inhibition [15]: > 50%
15.8 nM | – | – | – | – | CCOc1nc(Nc2ccc(C(=O)N3CCN(C)CC3)cc2OC)nc2[nH]ccc12 | –
63.1 nM | 158 nM | 1.1 mL/min/g | 4.3 | 6.2 µg/mL (≈ 15.1 µM) | CCOc1nc(Nc2ccc(C(=O)N3CC4(COC4)C3)cc2OC)nc2[nH]ccc12 | –
6.31 nM | 63.1 nM | < 0.777 mL/min/g | 3 | 621 µg/mL (≈ 1380 µM) | CCOc1nc(Nc2ccc(C(=O)N3CCC4(CC3)CN(C)C4)cc2OC)nc2[nH]ccc12 | Ratio [16]: 5
63.1 nM | 200 nM | 1.5 mL/min/g | 5.7 | 4.4 µg/mL (≈ 10.3 µM) | CCOc1nc(Nc2ccc(C(=O)N3C[C@@H](C)O[C@@H](C)C3)cc2OC)nc2[nH]ccc12 | –
12.6 nM | 158 nM | – | – | – | CCOc1nc(Nc2ccc(C(=O)N3CCN(C)CC3)cc2F)nc2[nH]ccc12 | –
